Legend:
Type in all cases: in vivo
Plutella xylostella = test: Activity against Plutella xylostella (diamond back moth), artificial diet in 24-well plates; settings: 192 h, application rate 200 ppm, eggs, 8 days after infestation, in comparison to untreated samples, read-out: effect in at least one of the two categories (mortality or growth inhibition)
Description: Example B6: Activity Against Plutella xylostella (Diamond Back Moth)
24-well microtiter plates with artificial diet were treated with aqueous test solutions prepared from 10'000 ppm DMSO stock solutions by pipetting. After drying, Plutella eggs were pipetted through a plastic stencil onto a gel blotting paper and the plate was closed with it. The samples were assessed for mortality and growth inhibition in comparison to untreated samples 8 days after infestation.

Chilo suppressalis = test: Activity against Chilo suppressalis (striped rice stemborer), artificial diet in 24-well plates; settings: 144 h, application rate 200 ppm, L2 larvae, 6 days after infestation, in comparison to untreated samples, read-out: control (at least one of mortality, anti-feedant effect, growth inhibition)
Description: Example B1: Activity Against Chilo suppressalis (Striped Rice Stemborer)
24-well microtiter plates with artificial diet were treated with aqueous test solutions prepared from 10'000 ppm DMSO stock solutions by pipetting. After drying, the plates were infested with L2 larvae (6-8 per well). The samples were assessed for mortality, anti-feeding effect, and growth inhibition in comparison to untreated samples 6 days after infestation. Control of Chilo suppressalis by a test sample is given when at least one of the categories mortality, anti-feedant effect, and growth inhibition is higher than the untreated sample.

Euschistus heros = test: Activity against Euschistus heros (neotropical brown stink bug), soybean leaves sprayed; settings: 120 h, application rate 200 ppm, N2 nymphs, 5 days after infestation, in comparison to untreated samples, read-out: effect in at least one of the two categories (mortality or growth inhibition)
Description: Example B3: Activity Against Euschistus heros (Neotropical Brown Stink Bug)
Soybean leaves on agar in 24-well microtiter plates were sprayed with aqueous test solutions prepared from 10'000 ppm DMSO stock solutions. After drying the leaves were infested with N2 nymphs. The samples were assessed for mortality and growth inhibition in comparison to untreated samples 5 days after infestation.

Diabrotica balteata = test: Activity against Diabrotica balteata (corn root worm), maize sprouts sprayed; settings: 96 h, application rate 200 ppm, L2 larvae, 4 days after infestation, in comparison to untreated samples, read-out: effect in at least one of the two categories (mortality or growth inhibition)
Description: Example B2: Activity Against Diabrotica Balteata (Corn Root Worm)
Maize sprouts placed onto an agar layer in 24-well microtiter plates were treated with aqueous test solutions prepared from 10'000 ppm DMSO stock solutions by spraying. After drying, the plates were infested with L2 larvae (6 to 10 per well). The samples were assessed for mortality and growth inhibition in comparison to untreated samples 4 days after infestation.

Spodoptera littoralis = test: Activity against Spodoptera littoralis (Egyptian cotton leaf worm), cotton leaf discs sprayed; settings: foliar, 72 h, application rate 200 ppm, L1 larvae, 3 days after infestation, in comparison to untreated samples, read-out: control (at least one of mortality, anti-feedant effect, growth inhibition)
Description: Example B7: Activity Against Spodoptera littoralis (Egyptian Cotton Leaf Worm)
Cotton leaf discs were placed onto agar in 24-well microtiter plates and sprayed with aqueous test solutions prepared from 10'000 ppm DMSO stock solutions. After drying the leaf discs were infested with five L1 larvae. The samples were assessed for mortality, anti-feeding effect, and growth inhibition in comparison to untreated samples 3 days after infestation. Control of Spodoptera littoralis by a test sample is given when at least one of the categories mortality, anti-feedant effect, and growth inhibition is higher than the untreated sample.

Myzus persicae [1] = test: Activity against Myzus persicae (green peach aphid), systemic activity, pea seedling roots in test solution; settings: 144 h, test rate 24 ppm, aphid population of mixed ages, 6 days after placing seedlings into test solutions
Description: Example B5: Activity Against Myzus persicae (Green Peach Aphid) Systemic Activity
Roots of pea seedlings infested with an aphid population of mixed ages were placed directly into aqueous test solutions prepared from 10'000 DMSO stock solutions. The samples were assessed for mortality 6 days after placing seedlings into test solutions.

Myzus persicae [2] = test: Activity against Myzus persicae (green peach aphid), feeding/contact activity, sunflower leaf discs; settings: foliar, 144 h, application rate 200 ppm, aphid population of mixed ages, 6 days after infestation
Description: Example B4: Activity Against Myzus persicae (Green Peach Aphid) Feeding/Contact Activity
Sunflower leaf discs were placed onto agar in a 24-well microtiter plate and sprayed with aqueous test solutions prepared from 10'000 ppm DMSO stock solutions. After drying, the leaf discs were infested with an aphid population of mixed ages. The samples were assessed for mortality 6 days after infestation.

CCS(=O)(=O)c1cc(C2(C#N)CC2)cnc1-c1coc2cc(Cl)ccc2c1=O [P.1, 1-[6-(7-chloro-4-oxo-chromen-3-yl)-5-ethylsulfonyl-3-pyridyl]-cyclopropanecarbonitrile]
≥ 80%: percent effect (mortality or growth inhibition) at 200 ppm (Plutella xylostella) | percent control (mortality, anti-feedant effect or growth inhibition) at 200 ppm (Chilo suppressalis) | percent effect (mortality or growth inhibition) at 200 ppm (Euschistus heros) | percent effect (mortality or growth inhibition) at 200 ppm (Diabrotica balteata) | percent control (mortality, anti-feedant effect or growth inhibition) at 200 ppm (Spodoptera littoralis) | mortality at 24 ppm (Myzus persicae [1]) | mortality at 200 ppm (Myzus persicae [2])

CCS(=O)(=O)c1cc(C2(C#N)CC2)cnc1-c1coc2cc(I)ccc2c1=O [P.2, 1-[5-ethylsulfonyl-6-(7-iodo-4-oxo-chromen-3-yl)-3-pyridyl]cyclopropanecarbonitrile]
≥ 80%: percent effect (mortality or growth inhibition) at 200 ppm (Plutella xylostella) | percent control (mortality, anti-feedant effect or growth inhibition) at 200 ppm (Chilo suppressalis) | percent effect (mortality or growth inhibition) at 200 ppm (Euschistus heros) | percent effect (mortality or growth inhibition) at 200 ppm (Diabrotica balteata) | percent control (mortality, anti-feedant effect or growth inhibition) at 200 ppm (Spodoptera littoralis) | mortality at 200 ppm (Myzus persicae [2])

CCS(=O)(=O)c1cc(C2(C#N)CC2)cnc1-c1coc2cc(Br)ccc2c1=O [P.3, 1-[6-(7-bromo-4-oxo-chromen-3-yl)-5-ethylsulfonyl-3-pyridyl]-cyclopropanecarbonitrile]
≥ 80%: percent effect (mortality or growth inhibition) at 200 ppm (Plutella xylostella) | percent control (mortality, anti-feedant effect or growth inhibition) at 200 ppm (Chilo suppressalis) | percent effect (mortality or growth inhibition) at 200 ppm (Euschistus heros) | percent effect (mortality or growth inhibition) at 200 ppm (Diabrotica balteata) | percent control (mortality, anti-feedant effect or growth inhibition) at 200 ppm (Spodoptera littoralis)

CCS(=O)(=O)c1cc(C2(C#N)CC2)cnc1-c1coc2cc(F)ccc2c1=O [P.4, 1-[5-ethylsulfonyl-6-(7-fluoro-4-oxo-chromen-3-yl)-3-pyridyl]cyclopropane-carbonitrile]
≥ 80%: percent effect (mortality or growth inhibition) at 200 ppm (Plutella xylostella) | percent control (mortality, anti-feedant effect or growth inhibition) at 200 ppm (Chilo suppressalis) | percent effect (mortality or growth inhibition) at 200 ppm (Euschistus heros) | percent effect (mortality or growth inhibition) at 200 ppm (Diabrotica balteata) | percent control (mortality, anti-feedant effect or growth inhibition) at 200 ppm (Spodoptera littoralis) | mortality at 24 ppm (Myzus persicae [1])

CCS(=O)(=O)c1cc(C2(C#N)CC2)cnc1-c1coc2cc(C3CC3)ccc2c1=O [P.5, 1-[6-(7-cyclopropyl-4-oxo-chromen-3-yl)-5-ethylsulfonyl-3-pyridyl]-cyclopropane-carbonitrile]
≥ 80%: percent effect (mortality or growth inhibition) at 200 ppm (Plutella xylostella) | percent control (mortality, anti-feedant effect or growth inhibition) at 200 ppm (Chilo suppressalis) | percent effect (mortality or growth inhibition) at 200 ppm (Euschistus heros) | percent effect (mortality or growth inhibition) at 200 ppm (Diabrotica balteata) | percent control (mortality, anti-feedant effect or growth inhibition) at 200 ppm (Spodoptera littoralis)

CCS(=O)(=O)c1cc(C2(C#N)CC2)cnc1-c1coc2cc(-c3ccc(F)cc3)ccc2c1=O [P.6, 1-[5-ethylsulfonyl-6-[7-(4-fluorophenyl)-4-oxo-chromen-3-yl]-3-pyridyl]cyclopropane-carbonitrile]
≥ 80%: percent effect (mortality or growth inhibition) at 200 ppm (Plutella xylostella) | percent effect (mortality or growth inhibition) at 200 ppm (Diabrotica balteata) | percent control (mortality, anti-feedant effect or growth inhibition) at 200 ppm (Spodoptera littoralis)

CCS(=O)(=O)c1cc(C2(C#N)CC2)cnc1-c1coc2cc(-c3cc(F)cc(F)c3)ccc2c1=O [P.7, 1-[6-[7-(3,5-difluorophenyl)-4-oxo-chromen-3-yl]-5-ethylsulfonyl-3-pyridyl]-cyclopropanecarbonitrile]
≥ 80%: percent effect (mortality or growth inhibition) at 200 ppm (Plutella xylostella) | percent control (mortality, anti-feedant effect or growth inhibition) at 200 ppm (Chilo suppressalis) | percent effect (mortality or growth inhibition) at 200 ppm (Euschistus heros) | percent effect (mortality or growth inhibition) at 200 ppm (Diabrotica balteata) | percent control (mortality, anti-feedant effect or growth inhibition) at 200 ppm (Spodoptera littoralis)
